What was measured:
[1] = test system: effets β1 (augmentation de la force contractile du myocarde) de l'isoprénaline; assay: β-blocking activity: inhibition of the β1 effects of intravenous isoprenaline in anaesthetised dogs; assay type: in vivo, chiens; conditions: dog; for inhibition at 0.001 mg/kg / inhibition at 0.003 mg/kg / inhibition at 0.01 mg/kg / inhibition at 0.1 mg/kg: Canis lupus familiaris, iv, inhibition given with negative sign, read-out: % d'inhibition des effets β1^(+) de l'Isoprénaline; for inhibition at 0.001 mg/kg: 0,001 mg/kg I.V.; for inhibition at 0.003 mg/kg: 0,003 mg/kg I.V.; for inhibition at 0.01 mg/kg: 0,010 mg/kg I.V.; for inhibition at 0.1 mg/kg: 0,100 mg/kg I.V.
Protocol: (§1) Des chiens tout-venants mâles ou femelles sont anesthésiés au mébubarbital sodique (30 mg/kg I.V.) et ventilés artificiellement par une pompe Pesty RPP. Ils sont supplémentés en oxygène.
(§2) On mesure: • - la pression carotidienne systolique et diastolique • - la force contractile du myocarde.
(§3) Les signaux sont amplifiés et enregistrés sur Dynograph Beckman.
(§4) L'activité β bloquante adrénergique a été étudiée vis-à-vis des effets β1 (augmentation de la force contractile du myocarde) et des effets P2 (diminution de la pression artérielle disstolique) de l'isoprénaline administrée par voie intraveineuse.
(§5) On calcule le pourcentsge d'inhibition des effets β1 et des effets β2 de l'isoprénaline en fonction des doses (mg.kg I.V.) des différents exemples.
(§6) Les exemples sont injectés dans le veine saphène aux doses (exprimées en base) de: 0,0003 0,001 0,003 0,01 0,1 1,0 et 4,0 ou 8,0 mg.kg-1.

[2] = test system: effets β2 (diminution de la pression artérielle diastolique) de l'isoprénaline; assay: β-blocking activity: inhibition of the β2 effects of intravenous isoprenaline in anaesthetised dogs; assay type: in vivo, chiens; conditions: dog; for inhibition at 0.001 mg/kg / inhibition at 0.003 mg/kg / inhibition at 0.01 mg/kg / inhibition at 0.1 mg/kg: Canis lupus familiaris, iv, inhibition given with negative sign, read-out: % d'inhibition des effets β2^⊕ de l'Isoprénaline; for inhibition at 0.001 mg/kg: 0,001 mg/kg I.V.; for inhibition at 0.003 mg/kg: 0,003 mg/kg I.V.; for inhibition at 0.01 mg/kg: 0,010 mg/kg I.V.; for inhibition at 0.1 mg/kg: 0,100 mg/kg I.V.
Protocol: as §1, §2, §3, §4, §5, §6

[3] = test system: rat génétiquement hypertendu: Rat OKAMOTO; assay: Antihypertensive activity in spontaneously hypertensive rats (tail-cuff systolic pressure and heart rate after oral dosing); assay type: in vivo
Protocol: Des rats mâles âgés de 13 à 21 semaines présentant une hypertension spontanée génétiquement transmissible (souche OKAMOTO provenance IFFA CREDO) sont placés dans une enceinte thermostatée à 38°C. Les rats sont laissés en situation libre. La pression artérielle est mesurée par un sphygmomanomètre Narco Biosystem. Un manchon est placé à la base de la queue et un détecteur enregistre le pouls en aval du manchon. Celui-ci est gonflé jusqu'à suppression du pouls il est ensuite progressivement dégonflé. La pression mesurée à la reprise des battements cardiaques est la pression artérielle systolique. On calcule la fréquence cardiaque à partir de l'enregistrement du pouls artériel. Les produits à étudiar sont mis en suspension el administrés par voie orale sous un volume de 1 ml pour 100 g de poids corporel. Les mesures sont répétées à intervalles réguliers.
Les valeurs moyennes avant traitement pour les différents lots de rats sont pour la pression artérielle systolique de 190 à 200 mmHg et pour la fréquence cardiaque de 305 à 350 battements par minute.
Le tableau III ci-après donne la moyenne des variations de la pression systolique (mmHg) de la fréquence cardisque (battements/minute) et les écarts type à la moyenne obtenus 1 heure 3 heures et 5 heures après administration orale.

[4] = 0.003 mg.kg^-1 voie intraveineuse
[5] = 0.01 mg.kg^-1 voie intraveineuse
[6] = 0.1 mg.kg^-1 voie intraveineuse
[7] = 1.0 mg.kg^-1 voie intraveineuse
[8] = 8.0 mg.kg^-1 voie intraveineuse
[9] = 128 mg.kg^-1 V.O, T+3 heures, mean

| SMILES | inhibition at 0.001 mg/kg [1] [%] | inhibition at 0.003 mg/kg [1] [%] | inhibition at 0.01 mg/kg [1] [%] | inhibition at 0.1 mg/kg [1] [%] | inhibition at 0.001 mg/kg [2] [%] | inhibition at 0.003 mg/kg [2] [%] | inhibition at 0.01 mg/kg [2] [%] | inhibition at 0.1 mg/kg [2] [%] | Fréquence cardiaque Δ (battements/min) T+1 heure m (sm) ([3]; 128 mg.kg^-1 V.O, T+1 heure) | Pression systolique Δ (mmHg) T+1 heure m (sm) ([3]; 128 mg.kg^-1 V.O, T+1 heure) | Fréquence cardiaque Δ (battements/min) T+3 heures m (sm) ([3]; 128 mg.kg^-1 V.O, T+3 heures) | Pression systolique Δ (mmHg) T+3 heures m (sm) ([3]; 128 mg.kg^-1 V.O, T+3 heures) | Fréquence cardiaque Δ (battements/min) T+5 heures m (sm) ([3]; 128 mg.kg^-1 V.O, T+5 heures) | Pression systolique Δ (mmHg) T+5 heures m (sm) ([3]; 128 mg.kg^-1 V.O, T+5 heures) | further results |
| --- | --- | --- | --- | --- | --- | --- | --- | --- | --- | --- | --- | --- | --- | --- | --- |
| C=CCc1cc(NC(=O)Cc2ccsc2)ccc1OCC(O)CNC(C)(C)C (stereo not drawn) [exemple 38, 1-[2-allyl 4-(3-thiénylacétamido)phénoxy] 3-terbutylamino 2-propanol] | -5 | -35 | -73 | -100 | -4 | -4 | -6 | -27 | – | – | – | – | – | – | Fréquence cardiaque Δ (battements/min) T+1 heure m (sm) ([3]; 64 mg.kg^-1 V.O, T+1 heure): +39 (9) battements/min; Pression systolique Δ (mmHg) T+1 heure m (sm) ([3]; 64 mg.kg^-1 V.O, T+1 heure): -31 (5) mmHg; Fréquence cardiaque Δ (battements/min) T+3 heures m (sm) ([3]; 64 mg.kg^-1 V.O, T+3 heures): +21 (9) battements/min; Pression systolique Δ (mmHg) T+3 heures m (sm) ([3]; 64 mg.kg^-1 V.O, T+3 heures): -26 (5) mmHg; Fréquence cardiaque Δ (battements/min) T+5 heures m (sm) ([3]; 64 mg.kg^-1 V.O, T+5 heures): +29 (13) battements/min; Pression systolique Δ (mmHg) T+5 heures m (sm) ([3]; 64 mg.kg^-1 V.O, T+5 heures): -34 (7) mmHg |
| CC(C)NCC(O)COc1ccc(NC(=O)Cc2cccs2)cc1Cl (stereo not drawn) [exemple 44, 1-[2-chloro 4-(2-thiénylacétamido)phénoxy] 3-isopropylamino 2-propanol] | -27 | -46 | -67 | -82 | -11 | -22 | -18 | -15 | +68 (5) battements/min | -37 (11) mmHg | +45 (12) battements/min | -48 (11) mmHg | +52 (11) battements/min | -53 (11) mmHg | – |
| CC(C)(C)NCC(O)COc1ccc(NC(=O)Cc2cccs2)cc1C#N (stereo not drawn) [exemple 7, 1-[2-cyano 4-(2-thiénylacétamido)phénoxy] 3-terbutylamino 2-propanol] | -24 | -70 | -86 | -100 | 0 | -4 | -16 | -36 | +36 (4) battements/min | -27 (5) mmHg | +29 (4) battements/min | -27 (5) mmHg | +25 (9) battements/min | -31 (5) mmHg | Pourcentages d'inhibition des effets β1 de l'Isoprénaline ([1]; 0.001 mg.kg^-1 voie intraveineuse): 24%; Pourcentages d'inhibition des effets β1 de l'Isoprénaline [1, 4]: 70%; Pourcentages d'inhibition des effets β1 de l'Isoprénaline [1, 5]: 86%; Pourcentages d'inhibition des effets β1 de l'Isoprénaline [1, 6]: 100%; Pourcentages d'inhibition des effets β1 de l'Isoprénaline [1, 7]: 100%; Pourcentages d'inhibition des effets β1 de l'Isoprénaline [1, 8]: 100%; Pourcentages d'inhibition des effets β2 de l'Isoprénaline [2, 4]: 4%; Pourcentages d'inhibition des effets β2 de l'Isoprénaline [2, 5]: 16%; Pourcentages d'inhibition des effets β2 de l'Isoprénaline [2, 6]: 36%; Pourcentages d'inhibition des effets β2 de l'Isoprénaline [2, 7]: 88%; Pourcentages d'inhibition des effets β2 de l'Isoprénaline [2, 8]: 100%; Pression systolique Δ (mmHg) T+1 heure m ([3]; 128 mg.kg^-1 V.O, T+1 heure, mean): -27 mmHg; Fréquence cardiaque Δ (battements/minute) T + 3 heures m [3, 9]: +29 battements/minute; Pression systolique Δ (mmHg) T+3 heures m [3, 9]: -27 mmHg; Pression systolique Δ (mmHg) T+5 heures m ([3]; 128 mg.kg^-1 V.O, T+5 heures, mean): -31 mmHg |

Reference: EP0071535B1, “(4-(2 and/or 3-Thienylacetamido)-phenoxy)-hydroxyaminopropanes, their preparation, their therapeutic use and intermediates” (CARPIBEM (CENTRE D'ACTIVITE ET DE RECHERCHE PHARMACEUTIQUE …, priority 1981, dated 1983)
